In US8604085B2, “Bupropion hydrobromide polymorphs” (Valeant International Bermuda, priority 2008, dated 2013):

Key:
Type in all cases: physicochemical
[1] = Slurry experiments at room temperature (thermodynamic stability of crystal forms, X-ray diffraction); conditions: for Slurry Result / Slurry result, large scale: room temperature; for Slurry Result: form by XRD; for Slurry result, large scale: 0.5 g of powder in 10 mL
Protocol: Slurry experiments of Form I were performed at room temperature to verify if Form I is the thermodynamic crystal form. 0.050 g of Form I was suspended in 2 ml of solvent and stirred for 1 week. The sample was filtered and analyzed by X-ray diffraction. In the large majority of the experiments, Form I converts into Form II. […] By 1,4-Dioxane, a new crystal form was obtained named Form V. See Table 46 for the Form I slurries results (7 days).
Further slurry experiments of Form I were performed at room temperature using 0.5 g of powder in 10 mL of solvent to confirm the results obtained even in large scale.
0.050 g of Form I were suspended in 2 ml of solvent and stirred at room temperature for 4 weeks (30 days). The sample was filtered and analyzed by X-ray diffraction. By 1,4-Dioxane, Form V was obtained. By tetrahydrofuran, Form II and Form VII were obtained. […] See Table 47 for the Form I slurries results (30 days).
Slurry experiments of mixtures of Form I and Form II were performed at room temperature to verify their thermodynamic stability. 0.040 g of Form I+0.040 g of Form II were suspended in 4 ml of solvent and stirred for 1 week (7 days). The samples were filtered and analyzed by X-ray diffraction. By 1,4-Dioxane, Form V was obtained. […] See Table 48 for the Form I+Form II slurries results (7 days).
Slurry experiments of mixtures of Form II and Form III were performed at room temperature to verify their thermodynamic stability. 0.040 g of Form II+0.040 g of Form III were suspended in 4 ml of solvent and stirred for 1 week (7 days). The samples were filtered and analyzed by X-ray diffraction. By 1,4-Dioxane, Form V was obtained. […] See Table 49 for the Form II+Form III slurries results (7 days).
Slurry experiments of mixtures of Form II and Form IV were performed at room temperature to verify their thermodynamic stability. 0.040 g of Form II+0.040 g of Form IV were suspended in 4 ml of solvent and stirred for 1 week (7 days). The samples were filtered and analyzed by X-ray diffraction. By 1,4-Dioxane, Form V was obtained. […] See Table 50 for the Form II+Form IV slurries results (7 days).
Slurry experiments of mixtures of Form II and Form V were performed at room temperature to verify their thermodynamic stability. 0.040 g of Form II+0.040 g of Form V were suspended in 4 ml of solvent and stirred for 1 week (7 days). The samples were filtered and analyzed by X-ray diffraction. By 1,4-Dioxane, Form V was obtained. […] See Table 51 for the Form II+Form V slurries results (7 days).
Slurry experiments of mixtures of Form II and Form VI were performed at room temperature to verify their thermodynamic stability. 0.040 g of Form II+0.040 g of Form VI were suspended in 4 ml of solvent and stirred for 1 week (7 days). The samples were filtered and analyzed by X-ray diffraction. By 1,4-Dioxane, Form V was obtained. […] See Table 52 for the Form II+Form VI slurries results (7 days).
Slurry experiments of mixtures of Form II and Form VII were performed at room temperature to verify their thermodynamic stability. 0.040 g of Form II+0.040 g of Form VII were suspended in 4 ml of solvent and stirred for 1 week (7 days). The samples were filtered and analyzed by X-ray diffraction. By 1,4-Dioxane, Form V was obtained. […] See Table 53 for the Form II+Form VII slurries results (7 days).

[2] = Precipitation by anti-solvent (ethyl acetate) addition at room temperature
Description: The samples were filtered and analyzed by X-ray diffraction. Form I converts into Form II using chloroform, and also with benzyl alcohol. The other experiments yield only Form I. See Table 54 for Form I precipitation results by anti-solvent addition.

[3] = TGA and DSC characterization
Protocol: The PXRD diffraction patterns were obtained on X-ray powder diffraction PANalytical X′pert Pro equipped with X′Celerator, in a measurement range between 3 and 40 2 theta. All the DSC experiments were performed with a DSC 7 Perkin Elmer instrument in a temperature range between 25° C. and 250° C. with a heating rate of 10° C./min.
All the TGA experiments were conducted with a TGA 7 Perkin Elmer instrument in a temperature range between 39° C. and 310° C. with a heating rate of 10° C./min.
PXRD, DSC, TGA and IR analyses were obtained for Bupropion Hydrobromide Polymorph Form I, Form II, Form III, Form IV, Form V, Form VI, and Form VII. PXRD analyses were obtained for the amorphous form. With respect to the PXRD analyses, the Peak List is shown for Form I, Form II, Form III, Form IV, Form V, Form VI, Form VII and the amorphous form in Table 56, Table 57, Table 58, Table 59, Table 60, Table 61, Table 62 and Table 63 respectively.

Br.CC(NC(C)(C)C)C(=O)c1cccc(Cl)c1 (single isomer, unassigned) [Form I]
Thermodynamic stability of the crystal form as shown by slurry experiments [1]: metastable form | Slurry Result ([1]; 1,2-Dimethoxy Ethane, 7 days): Form II | Slurry Result ([1]; 1,2-Dimethoxy Ethane, 30 days): Form II | Slurry Result ([1]; 1,4-Dioxane, 7 days): Form V | Slurry Result ([1]; 1,4-Dioxane, 30 days): Form V | Slurry Result ([1]; 1-Octanol, 7 days): Form II | Slurry Result ([1]; 1-Octanol, 30 days): Form II | Slurry Result ([1]; 3-Pentanone, 7 days): Form II | Slurry Result ([1]; 4-Methyl-2-Pentanone, 7 days): Form II | Slurry Result ([1]; 4-Methyl-2-Pentanone, 30 days): Form II | Slurry Result ([1]; Acetone, 7 days): Form II | Slurry Result ([1]; Acetone, 30 days): Form II | Slurry Result ([1]; Benzonitrile, 7 days): Form II + VII | Slurry Result ([1]; Cyclohexane, 7 days): Form I | Slurry Result ([1]; Cyclohexane, 30 days): Form II | Slurry Result ([1]; Diethyl Carbonate, 7 days): Form II | Slurry Result ([1]; Diethyl Carbonate, 30 days): Form II | Slurry Result ([1]; Diethyl Ether, 30 days): Form II | Slurry Result ([1]; Diethyl ether, 7 days): Form II | Slurry Result ([1]; Ethyl Acetate (second line of the table), 30 days): Form II | Slurry result, large scale ([1]; Ethyl Acetate): convert into Form II | Slurry Result ([1]; Ethyl Benzoate, 7 days): Form II | Slurry Result ([1]; Ethyl Formate, 7 days): Form II | Slurry Result ([1]; Ethyl Formate, 30 days): Form II | Slurry Result ([1]; Ethyl acetate, 7 days): Form II | Slurry Result ([1]; Ethyl acetate, 30 days): Form II | Slurry Result ([1]; Iso-Propyl Ether, 7 days): Form II | Slurry Result ([1]; Iso-Propyl Ether, 30 days): Form II | Slurry Result ([1]; Isopropyl Acetate, 7 days): Form II | Slurry Result ([1]; Isopropyl Acetate, 30 days): Form II | Slurry Result ([1]; Mesitylene, 7 days): Form II | Slurry Result ([1]; Methyl Benzoate, 7 days): Form II | Slurry Result ([1]; Methyl Benzoate, 30 days): Form II | Slurry Result ([1]; Methyl Ethyl Ketone, 7 days): Form II | Slurry Result ([1]; Methyl Ethyl Ketone, 30 days): Form II | Slurry Result ([1]; Methyl-Cyclohexane, 7 days): Form I | Slurry Result ([1]; Methyl-Cyclohexane, 30 days): Form II | Slurry Result ([1]; Nitrobenzene, 7 days): Form II | Slurry Result ([1]; Propyl Acetate, 7 days): Form II | Slurry Result ([1]; Tert-Butanol, 7 days): Form II | Slurry Result ([1]; Tetrahydrofuran, 7 days): Form II | Slurry Result ([1]; Tetrahydrofuran, 30 days): Form II + VII | Slurry Result ([1]; Toluene, 7 days): Form II | Slurry Result ([1]; Toluene, 30 days): Form II | Slurry Result ([1]; n-Hexan, 7 days): Form II | Slurry Result ([1]; n-Hexan, 30 days): Form II | Slurry result, large scale ([1]; p-Xylene): convert into Form II | Slurry Result ([1]; p-Xylene, 7 days): Form II | Slurry Result ([1]; p-Xylene, 30 days): Form II | Slurry Result ([1]; t-Butyl Methyl Ether, 7 days): Form II | Slurry Result ([1]; t-Butyl Methyl Ether, 30 days): Form II | Precipitation Result ([2]; solvent 1-Butanol): Form I | Precipitation Result ([2]; solvent 1-Methyl-2-Pyrrolidone): Form I | Precipitation Result ([2]; solvent 1-Propanol): Form I | Precipitation Result ([2]; solvent 2-Methoxy Ethanol): Form I | Precipitation Result ([2]; solvent 2-Methyl-1-Propanol): Form I | Precipitation Result ([2]; solvent 2-Propanol): Form I | Precipitation Result ([2]; solvent Benzyl Alcohol): Form II | Precipitation Result ([2]; solvent Chloroform): Form II | Precipitation Result ([2]; solvent Dichloromethane): Form I | Precipitation Result ([2]; solvent Dimethylformamide): Form I | Precipitation Result ([2]; solvent Ethanol): Form I | Precipitation Result ([2]; solvent Methanol): Form I | TGA (mass change) ([3]; successive mass-loss steps listed per polymorph): −100.04% | DSC (onset ° C.) ([3]; successive thermal events listed per polymorph): 236.81 °C
